In patent US20150105252A1, “SUBSTITUTED PYRAZOLES AS HERBICIDES” (E I DU PONT DE NEMOURS AND COMPANY, priority 2013, published 2015):

Legend:
radish, wild = assay: Test D postemergence; type: in vivo, Raphanus raphanistrum; conditions: scale 0 to 100
In short: (§1)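 Whole-plant herbicidal activity; pre- and postemergence sprays. Soil: silt loam (pre); peat/vermiculite medium (post, 1–4 leaf). Assessment: 14–21 days, visual, 0 = no effect, 100 = complete control.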

bromegrass, downy = assay: Test D postemergence; type: in vivo, Bromus tectorum; conditions: scale 0 to 100
In short: as §1

mustard, wild = assay: Test D postemergence; type: in vivo, Sinapis arvensis; conditions: scale 0 to 100
Source text: (§2) Seeds of plant species selected from bluegrass (annual bluegrass, Poa annua), blackgrass (Alopecurus myosuroides), canarygrass (littleseed canarygrass, Phalaris minor), chickweed (common chickweed, Stellaria media), galium (catchweed bedstraw, Galium aparine), bromegrass, downy (downy bromegrass, Bromus tectorum), field poppy (Papaver rhoeas), field violet (Viola arvensis), foxtail, green (green foxtail, Setaria viridis), deadnettle (henbit deadnettle, Lamium amplexicaule), ryegrass, Italian (Italian ryegrass, Lolium multiflorum), kochia (Kochia scoparia), lambsquarters (Chenopodium album), oilseed rape (Brassica napus), pigweed (redroot pigweed, Amaranthus retroflexus), chamomile (scentless chamomile, Matricaria inodora), speedwell (bird's-eye speedwell, Veronica persica), barley, spring (spring barley, Hordeum vulgare), wheat, spring (spring wheat, Triticum aestivum), buckwheat, wild (wild buckwheat, Polygonum convolvulus), mustard, wild (wild mustard, Sinapis arvensis), oat, wild (wild oat, Avena fatua), radish, wild (wild radish, Raphanus raphanistrum), windgrass (Apera spica-venti), Russian thistle (Salsola kali), barley, winter (winter barley, Hordeum vulgare), and wheat, winter (winter wheat, Triticum aestivum) were planted into a silt loam soil and treated preemergence with test chemicals formulated in a non-phytotoxic solvent mixture which included a surfactant.
(§3) At the same time, these species were planted in pots containing Redi-Earth® planting medium (Scotts Company, 14111 Scottslawn Road, Marysville, Ohio 43041) comprising spaghnum peat moss, vermiculite, wetting agent and starter nutrients and treated with postemergence applications of the test chemicals formulated in the same manner. Plants ranged in height from 2 to 18 cm (1- to 4-leaf stage). Treated plants and controls were maintained in a controlled growth environment for 14 to 21 days after which time all species were compared to controls and visually evaluated. Plant response ratings, summarized in Table D, are based on a scale of 0 to 100 where 0 is no effect and 100 is complete control. A dash (-) response means no test result.

ryegrass, Italian = assay: Test D preemergence; type: in vivo, Lolium multiflorum; conditions: for Plant response rating, Ryegrass, Italian: Preemergence, scale 0 to 100
In short: as §1

speedwell = assay: Test D preemergence; type: in vivo, Veronica persica; conditions: for Plant response rating, Speedwell: Preemergence, scale 0 to 100
Source text: as §2, §3

chamomile [1] = assay: Test D postemergence; type: in vivo, Matricaria inodora; conditions: scale 0 to 100
In short: as §1

canarygrass = assay: Test D preemergence; type: in vivo, Phalaris minor; conditions: for Plant response rating, Canarygrass: Preemergence, scale 0 to 100
In short: as §1

pigweed [2] = assay: Test D postemergence; type: in vivo, Amaranthus retroflexus; conditions: scale 0 to 100
In short: as §1

deadnettle = assay: Test D preemergence; type: in vivo, Lamium amplexicaule; conditions: for Plant response rating, Deadnettle: Preemergence, scale 0 to 100
In short: as §1

blackgrass = assay: Test D postemergence; type: in vivo, Alopecurus myosuroides; conditions: scale 0 to 100
In short: as §1

galium = assay: Test D postemergence; type: in vivo, Galium aparine; conditions: scale 0 to 100
In short: as §1

field violet = assay: Test D preemergence; type: in vivo, Viola arvensis; conditions: for Plant response rating, Field Violet: Preemergence, scale 0 to 100
In short: as §1

bluegrass [3] = assay: Test D postemergence; type: in vivo, Poa annua; conditions: scale 0 to 100
In short: as §1

lambsquarters = assay: Test D postemergence; type: in vivo, Chenopodium album; conditions: scale 0 to 100
In short: as §1

chamomile [4] = assay: Test D preemergence; type: in vivo, Matricaria inodora; conditions: for Plant response rating, Chamomile: Preemergence, scale 0 to 100
In short: as §1

bluegrass [5] = assay: Test D preemergence; type: in vivo, Poa annua; conditions: for Plant response rating, Bluegrass: Preemergence, scale 0 to 100
In short: as §1

pigweed [6] = assay: Test D preemergence; type: in vivo, Amaranthus retroflexus; conditions: for Plant response rating, Pigweed: Preemergence, scale 0 to 100
In short: as §1

buckwheat, wild = assay: Test D preemergence; type: in vivo, Polygonum convolvulus; conditions: for Plant response rating, Buckwheat, Wild: Preemergence, scale 0 to 100
In short: as §1

barley, winter = assay: Test D preemergence; type: in vivo, Hordeum vulgare; conditions: for Plant response rating, Barley, Winter: Preemergence, scale 0 to 100
In short: as §1

barley, spring = assay: Test D preemergence; type: in vivo, Hordeum vulgare; conditions: for Plant response rating, Barley, Spring: Preemergence, scale 0 to 100
In short: as §1

[7] = 16 g ai/ha, taken as preemergence

O=C(NC1CC1)c1cc(CCF)n(Cc2ccnc(C(F)(F)F)c2)n1 [Compound 176]
Radish, Wild plant response rating (radish, wild; Postemergence, 31 g ai/ha): 65
Radish, Wild plant response rating (radish, wild; Postemergence, 125 g ai/ha): 65
Radish, Wild plant response rating (radish, wild; postemergence, 62 g ai/ha): 65
Plant response rating, Bromegrass, Downy (bromegrass, downy; Postemergence, 16 g ai/ha): 10
Bromegrass, Downy plant response rating (bromegrass, downy; Postemergence, 31 g ai/ha): 25
Bromegrass, Downy plant response rating (bromegrass, downy; Postemergence, 125 g ai/ha): 30
Bromegrass, Downy plant response rating (bromegrass, downy; postemergence, 62 g ai/ha): 25
Plant response rating, Mustard, Wild (mustard, wild; Postemergence, 16 g ai/ha): 25
Mustard, Wild plant response rating (mustard, wild; Postemergence, 31 g ai/ha): 55
Mustard, Wild plant response rating (mustard, wild; Postemergence, 125 g ai/ha): 70
Mustard, Wild plant response rating (mustard, wild; postemergence, 62 g ai/ha): 55
Plant response rating (scale 0 to 100), Ryegrass, Italian (ryegrass, Italian; [7]): 0
Plant response rating, Ryegrass, Italian (ryegrass, Italian; 62 g ai/ha): 25
Plant response rating, Ryegrass, Italian (ryegrass, Italian; 125 g ai/ha): 30
Plant response rating (scale 0 to 100), Speedwell (speedwell; [7]): 15
Plant response rating, Speedwell (speedwell; 62 g ai/ha): 100
Plant response rating, Speedwell (speedwell; 125 g ai/ha): 100
Plant response rating, Chamomile (chamomile [1]; Postemergence, 16 g ai/ha): 10
Chamomile plant response rating (chamomile [1]; Postemergence, 31 g ai/ha): 15
Chamomile plant response rating (chamomile [1]; Postemergence, 125 g ai/ha): 35
Chamomile plant response rating (chamomile [1]; postemergence, 62 g ai/ha): 15
Plant response rating (scale 0 to 100), Canarygrass (canarygrass; [7]): 0
Plant response rating, Canarygrass (canarygrass; 31 g ai/ha): 5
Plant response rating, Canarygrass (canarygrass; 62 g ai/ha): 25
Plant response rating, Canarygrass (canarygrass; 125 g ai/ha): 35
Plant response rating, Pigweed (pigweed [2]; Postemergence, 16 g ai/ha): 55
Pigweed plant response rating (pigweed [2]; Postemergence, 31 g ai/ha): 65
Pigweed plant response rating (pigweed [2]; Postemergence, 125 g ai/ha): 70
Pigweed plant response rating (pigweed [2]; postemergence, 62 g ai/ha): 65
Plant response rating (scale 0 to 100), Deadnettle (deadnettle; [7]): 0
Plant response rating, Deadnettle (deadnettle; 31 g ai/ha): 20
Plant response rating, Deadnettle (deadnettle; 62 g ai/ha): 80
Plant response rating, Deadnettle (deadnettle; 125 g ai/ha): 100
Plant response rating, Blackgrass (blackgrass; Postemergence, 16 g ai/ha): 5
Blackgrass plant response rating (blackgrass; Postemergence, 31 g ai/ha): 15
Blackgrass plant response rating (blackgrass; Postemergence, 125 g ai/ha): 20
Blackgrass plant response rating (blackgrass; postemergence, 62 g ai/ha): 15
Plant response rating, Galium (galium; Postemergence, 16 g ai/ha): 55
Galium plant response rating (galium; Postemergence, 31 g ai/ha): 65
Galium plant response rating (galium; Postemergence, 125 g ai/ha): 65
Galium plant response rating (galium; postemergence, 62 g ai/ha): 65
Plant response rating (scale 0 to 100), Field Violet (field violet; [7]): 0
Plant response rating, Field Violet (field violet; 62 g ai/ha): 50
Plant response rating, Field Violet (field violet; 125 g ai/ha): 65
Plant response rating, Bluegrass (bluegrass [3]; Postemergence, 16 g ai/ha): 5
Bluegrass plant response rating (bluegrass [3]; Postemergence, 31 g ai/ha): 15
Bluegrass plant response rating (bluegrass [3]; Postemergence, 125 g ai/ha): 25
Bluegrass plant response rating (bluegrass [3]; postemergence, 62 g ai/ha): 15
Plant response rating, Lambsquarters (lambsquarters; Postemergence, 16 g ai/ha): 55
Lambsquarters plant response rating (lambsquarters; Postemergence, 31 g ai/ha): 60
Lambsquarters plant response rating (lambsquarters; Postemergence, 125 g ai/ha): 75
Lambsquarters plant response rating (lambsquarters; postemergence, 62 g ai/ha): 60
Plant response rating (scale 0 to 100), Chamomile (chamomile [4]; [7]): 5
Plant response rating, Chamomile (chamomile [4]; 31 g ai/ha): 5
Plant response rating, Chamomile (chamomile [4]; 62 g ai/ha): 10
Plant response rating, Chamomile (chamomile [4]; 125 g ai/ha): 50
Plant response rating (scale 0 to 100), Bluegrass (bluegrass [5]; [7]): 0
Plant response rating, Bluegrass (bluegrass [5]; 31 g ai/ha): 0
Plant response rating, Bluegrass (bluegrass [5]; 62 g ai/ha): 10
Plant response rating, Bluegrass (bluegrass [5]; 125 g ai/ha): 20
Plant response rating (scale 0 to 100), Pigweed (pigweed [6]; [7]): 10
Plant response rating, Pigweed (pigweed [6]; 62 g ai/ha): 40
Plant response rating, Pigweed (pigweed [6]; 125 g ai/ha): 100
Plant response rating (scale 0 to 100), Buckwheat, Wild (buckwheat, wild; [7]): 0
Plant response rating, Buckwheat, Wild (buckwheat, wild; 31 g ai/ha): 15
Plant response rating, Buckwheat, Wild (buckwheat, wild; 62 g ai/ha): 95
Plant response rating, Buckwheat, Wild (buckwheat, wild; 125 g ai/ha): 85
Plant response rating (scale 0 to 100), Barley, Winter (barley, winter; [7]): 0
Plant response rating, Barley, Winter (barley, winter; 31 g ai/ha): 0
Plant response rating, Barley, Winter (barley, winter; 62 g ai/ha): 0
Plant response rating, Barley, Winter (barley, winter; 125 g ai/ha): 0
Plant response rating (scale 0 to 100), Barley, Spring (barley, spring; 16 g ai/ha, taken as preemergence, 0 = no effect, 100 = complete control): 0
Plant response rating, Barley, Spring (barley, spring; 31 g ai/ha): 0
Plant response rating, Barley, Spring (barley, spring; 62 g ai/ha): 0
Plant response rating, Barley, Spring (barley, spring; 125 g ai/ha): 0
